Reference: PubChem BioAssay (NCI)
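Each compound was tested at five concentrations against cells in 96-well plates for 48 hours. GI50 marks 50% less growth. TGI: concentration producing complete growth inhibition.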

Columns and labels:
Test in all cases: growth of human tumour cells (NCI), 48 h
[1] = test system: SN12C renal
[2] = test system: NCI-H23 lung
[3] = test system: OVCAR-5 ovarian
[4] = test system: IGROV1 ovarian
[5] = test system: MCF7 breast
[6] = test system: A549 NSCLC
[7] = test system: U251 CNS
[8] = test system: SF-268 CNS
[9] = test system: M14 melanoma
[10] = test system: SK-OV-3 ovarian
[11] = test system: ACHN renal
[12] = test system: HT29 colon

For `O=c1oc2ccc([N+](=O)[O-])cc2c(Nc2ccc3c(c2)S(=O)(=O)c2ccccc2O3)c1[N+](=O)[O-]`, which TGI [1] is on record?
Its TGI is > 100 µM.

And the TGI [2]?
Its TGI is > 100 µM.

What about the TGI [3] of the same compound?
The TGI was > 100 µM.

And the TGI [4]?
The TGI was > 100 µM.

What about the TGI [5] of the same compound?
Its TGI is > 100 µM.

What about the TGI [6] of the same compound?
Its TGI is > 100 µM.

And the TGI [7]?
Its TGI is > 100 µM.

And the TGI [8]?
Its TGI is > 100 µM.

And the TGI [9]?
The TGI was > 100 µM.

And the TGI [10]?
Its TGI is > 100 µM.

What about the TGI [11] of the same compound?
The TGI was > 100 µM.

And the TGI [12]?
Its TGI is > 100 µM.

Which TGI [1] does the source give for `COP(=O)(OC)/C(=C\c1cn(C(c2ccccc2)(c2ccccc2)c2ccccc2)cn1)NC(C)=O` here?
Its TGI is > 100 µM.

And the TGI [2]?
The TGI was > 100 µM.

And the TGI [3]?
The TGI was > 100 µM.

And the TGI [4]?
Its TGI is > 100 µM.

What about the TGI [5] of the same compound?
The TGI was > 100 µM.

And the TGI [6]?
Its TGI is > 100 µM.

And the TGI [7]?
The TGI was > 100 µM.

And the TGI [8]?
The TGI was > 100 µM.

And the TGI [9]?
Its TGI is > 100 µM.

What about the TGI [10] of the same compound?
The TGI was > 100 µM.

What about the TGI [11] of the same compound?
The TGI was > 100 µM.

And the TGI [12]?
The TGI was > 100 µM.

Which TGI [1] does the source give for `N#Cc1nc(COCCOCc2ccc(F)cc2)oc1N` here?
Its TGI is > 100 µM.

And the TGI [2]?
The TGI was > 100 µM.

What about the TGI [3] of the same compound?
The TGI was > 100 µM.

What about the TGI [4] of the same compound?
The TGI was > 100 µM.

And the TGI [5]?
Its TGI is > 100 µM.

What about the TGI [6] of the same compound?
The TGI was > 100 µM.

What about the TGI [7] of the same compound?
Its TGI is > 100 µM.

And the TGI [8]?
Its TGI is > 100 µM.

And the TGI [9]?
Its TGI is > 100 µM.

And the TGI [10]?
The TGI was > 100 µM.

What about the TGI [11] of the same compound?
The TGI was > 100 µM.

And the TGI [12]?
Its TGI is > 100 µM.

With `C/C(=N\Nc1nc2ccccc2s1)c1cc(C)ncn1` as the compound, how does the TGI [1] read?
The TGI was 15.1 µM.

And the TGI [2]?
The TGI was 15.7 µM.

What about the TGI [3] of the same compound?
Its TGI is > 68.2 µM.

What about the TGI [4] of the same compound?
Its TGI is 20.5 µM.

What about the TGI [5] of the same compound?
Its TGI is > 19.4 µM.

What about the TGI [6] of the same compound?
Its TGI is > 45.2 µM.

What about the TGI [7] of the same compound?
Its TGI is > 49.6 µM.

And the TGI [8]?
Its TGI is 3.16 µM.

And the TGI [9]?
The TGI was 25.7 µM.

And the TGI [10]?
Its TGI is > 35.7 µM.

And the TGI [11]?
The TGI was > 32 µM.

What about the TGI [12] of the same compound?
Its TGI is > 34.6 µM.

For `Cc1nc2c(=O)n3c4c(cccc4c2o1)CCC3`, which TGI [1] is on record?
Its TGI is > 100 µM.

What about the TGI [2] of the same compound?
The TGI was > 100 µM.

And the TGI [3]?
Its TGI is > 100 µM.

And the TGI [4]?
Its TGI is > 100 µM.

And the TGI [5]?
The TGI was > 100 µM.

What about the TGI [6] of the same compound?
Its TGI is > 100 µM.

What about the TGI [7] of the same compound?
Its TGI is > 100 µM.

What about the TGI [8] of the same compound?
Its TGI is > 100 µM.

What about the TGI [9] of the same compound?
The TGI was > 100 µM.

What about the TGI [10] of the same compound?
The TGI was > 100 µM.

And the TGI [11]?
The TGI was > 100 µM.

And the TGI [12]?
Its TGI is > 100 µM.

What does the source list for `CC(=O)OCC(Br)C1(C)CCC(C(C)(C)Br)O1` (centres undefined)?
TGI [1]: > 100 µM; TGI [2]: > 100 µM; TGI [3]: > 100 µM; TGI [4]: > 100 µM; TGI [5]: > 100 µM; TGI [6]: > 100 µM; TGI [7]: > 100 µM; TGI [8]: > 100 µM; TGI [9]: > 100 µM; TGI [10]: > 100 µM; TGI [11]: > 100 µM; TGI [12]: > 100 µM

Which TGI [1] does the source give for `O=C(/C=C(\O)c1ccccc1)c1cc(-c2ccccc2)n(-c2ccccc2)n1` here?
Its TGI is 39.9 µM.

What about the TGI [2] of the same compound?
Its TGI is > 100 µM.

And the TGI [3]?
The TGI was > 100 µM.

And the TGI [4]?
The TGI was 79.9 µM.

And the TGI [5]?
Its TGI is > 100 µM.

What about the TGI [6] of the same compound?
Its TGI is 24.9 µM.

What about the TGI [7] of the same compound?
The TGI was 62.6 µM.

And the TGI [8]?
The TGI was > 100 µM.

And the TGI [9]?
The TGI was 55.7 µM.

And the TGI [10]?
Its TGI is > 100 µM.

What about the TGI [11] of the same compound?
Its TGI is 23.9 µM.

And the TGI [12]?
The TGI was 18.7 µM.

Which results are given for `O=c1ccn(C2OC(CN(O)CCC3C(CO)OC(n4ccc(=O)[nH]c4=O)C3O)C(O)C2O)c(=O)[nH]1` (centres undefined)?
TGI [1]: > 100 µM; TGI [2]: > 100 µM; TGI [3]: > 100 µM; TGI [4]: > 100 µM; TGI [5]: > 100 µM; TGI [6]: > 100 µM; TGI [7]: > 100 µM; TGI [8]: > 100 µM; TGI [9]: > 100 µM; TGI [10]: > 100 µM; TGI [11]: > 100 µM; TGI [12]: > 100 µM

How did the GI50 [1] turn out when `Nc1nc(N)c2nc(CNc3ccc(C(=O)NC(CCCCNC(=O)c4ccccc4C(=O)O)C(=O)O)cc3)cnc2n1` (centres undefined) was run?
Its GI50 is 0.0127 µM.

And the TGI [1]?
The TGI was > 100 µM.

And the GI50 [2]?
Its GI50 is 0.00915 µM.

What about the TGI [2] of the same compound?
The TGI was > 100 µM.

What about the TGI [3] of the same compound?
Its TGI is > 100 µM.

What about the TGI [4] of the same compound?
Its TGI is > 100 µM.

And the GI50 [5]?
Its GI50 is 0.00496 µM.

And the TGI [5]?
Its TGI is > 100 µM.

And the GI50 [6]?
Its GI50 is 0.00745 µM.

What about the TGI [6] of the same compound?
The TGI was > 100 µM.

What about the GI50 [7] of the same compound?
Its GI50 is 0.0385 µM.

And the TGI [7]?
The TGI was > 100 µM.

And the GI50 [8]?
Its GI50 is 0.00841 µM.

What about the TGI [8] of the same compound?
The TGI was > 100 µM.

And the TGI [9]?
Its TGI is > 100 µM.

What about the TGI [10] of the same compound?
The TGI was > 100 µM.

What about the GI50 [11] of the same compound?
Its GI50 is 0.00519 µM.

What about the TGI [11] of the same compound?
The TGI was > 100 µM.

What about the GI50 [12] of the same compound?
The GI50 was 0.00566 µM.

And the TGI [12]?
The TGI was > 100 µM.

With `O=C1c2ccccc2C(=O)c2oc(Br)cc21` as the compound, how does the TGI [1] read?
The TGI was 2.22 µM.

What about the TGI [2] of the same compound?
The TGI was 0.463 µM.

What about the TGI [3] of the same compound?
Its TGI is 3.16 µM.

What about the TGI [4] of the same compound?
The TGI was 3.08 µM.

What about the TGI [5] of the same compound?
The TGI was 1.96 µM.

And the TGI [6]?
The TGI was 1.03 µM.

What about the TGI [7] of the same compound?
Its TGI is 2.64 µM.

What about the TGI [8] of the same compound?
Its TGI is 4.22 µM.

What about the TGI [9] of the same compound?
The TGI was 0.311 µM.

What about the TGI [10] of the same compound?
Its TGI is 6.61 µM.

What about the TGI [11] of the same compound?
Its TGI is 3.22 µM.

What about the TGI [12] of the same compound?
Its TGI is 3.68 µM.

`NC(=O)c1cccc([C@@H]2O[C@H](CO)[C@@H](O)[C@H]2O)c1` was tested. Which TGI [1] did it give?
Its TGI is 80 µM.

And the TGI [2]?
Its TGI is 35.4 µM.

What about the TGI [3] of the same compound?
The TGI was > 100 µM.

And the TGI [4]?
The TGI was 85.6 µM.

And the TGI [5]?
Its TGI is > 100 µM.

What about the TGI [6] of the same compound?
The TGI was > 100 µM.

What about the TGI [7] of the same compound?
Its TGI is 32.4 µM.

And the TGI [8]?
The TGI was 26.6 µM.

And the TGI [9]?
Its TGI is 12.4 µM.

And the TGI [10]?
The TGI was 35.7 µM.

What about the TGI [11] of the same compound?
The TGI was 71.3 µM.

And the TGI [12]?
Its TGI is 99 µM.

Which TGI [1] does the source give for `CCCC[C@H]1CCN2C[C@@H](O)[C@@H](O)[C@H]2[C@@H]1O` here?
Its TGI is > 100 µM.

And the TGI [2]?
The TGI was > 100 µM.

What about the TGI [3] of the same compound?
Its TGI is > 100 µM.

And the TGI [4]?
The TGI was > 100 µM.

And the TGI [5]?
The TGI was > 100 µM.

And the TGI [6]?
Its TGI is > 100 µM.

What about the TGI [7] of the same compound?
The TGI was > 100 µM.

And the TGI [8]?
Its TGI is > 100 µM.

And the TGI [9]?
The TGI was > 100 µM.

And the TGI [10]?
Its TGI is > 100 µM.

What about the TGI [11] of the same compound?
Its TGI is > 100 µM.

And the TGI [12]?
Its TGI is > 100 µM.

For `Cc1c(C)c(S(=O)(=O)N(CCCCCON)OCCCN)c(C)c2c1OC(C)(C)CC2`, which TGI [1] is on record?
The TGI was 32.4 µM.

What about the TGI [2] of the same compound?
Its TGI is 29.6 µM.

What about the TGI [3] of the same compound?
Its TGI is 28.2 µM.

And the TGI [4]?
The TGI was 23.4 µM.

And the TGI [5]?
The TGI was 21.8 µM.

And the TGI [6]?
The TGI was 26.1 µM.

And the TGI [7]?
The TGI was 25.7 µM.

And the TGI [8]?
Its TGI is 30.5 µM.

What about the TGI [9] of the same compound?
The TGI was 18.8 µM.

What about the TGI [10] of the same compound?
The TGI was 28.1 µM.

And the TGI [11]?
The TGI was 30 µM.

What about the TGI [12] of the same compound?
Its TGI is 22.2 µM.
